What was measured:
[1] = test system: ALOMY; experiment: Post-emergence herbicidal action against ALOMY; assay type: in vivo, Alopecurus myosuroides; conditions: 80 g/ha, visual assessment after about 3 weeks
How it was run: (§1)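 Greenhouse post-emergence test; one-leaf stage (2–3 wk post-sowing), sandy loam. Spray: WP/EC in water, 600–800 l/ha, 0.2% wetting agent, onto green parts. Visual rating ~3 wk later, % vs untreated (100% = dead, 0% = like control).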

[2] = test system: DIGSA; experiment: Pre-emergence herbicidal action against DIGSA; assay type: in vivo, Digitaria sanguinalis; conditions: 320 g/ha, scored visually after 3 weeks vs untreated controls
How it was run: (§2)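 Visual percent damage, rated 3 weeks after treatment against untreated plants (0% like control, 100% plants dead). Compounds, as wettable powders or emulsion concentrates, were sprayed pre-emergence onto soil covering seeds sown in sandy loam, at 600 to 800 L/ha water with 0.2% wetting agent; pots kept in greenhouse.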

[3] = test system: LOLRI; experiment: Pre-emergence herbicidal action against LOLRI (Table 8, titled post-emergence at 320 g/ha); assay type: in vivo, Lolium rigidum; conditions: table stands in the pre-emergence section
How it was run: as §2

[4] = test system: ABUTH; experiment: Post-emergence herbicidal action against ABUTH; assay type: in vivo, Abutylon threophrasti; conditions: 80 g/ha, visual assessment about 3 weeks after treatment vs untreated controls
How it was run: as §1

[5] = test system: ABUTH; experiment: Pre-emergence herbicidal action against ABUTH; assay type: in vivo, Abutylon threophrasti; conditions: 320 g/ha
How it was run: as §2

[6] = test system: ALOMY; experiment: Pre-emergence herbicidal action against ALOMY; assay type: in vivo, Alopecurus myosuroides; conditions: 320 g/ha, scored visually after 3 weeks vs untreated controls
How it was run: as §2

[7] = test system: POLCO; experiment: Post-emergence herbicidal action against POLCO; assay type: in vivo, Polygonum convolvulus; conditions: 80 g/ha, visual assessment about 3 weeks after treatment vs untreated controls
Procedure: (§3) Seeds of monocotyledonous and dicotyledonous weed and crop plants are laid out in sandy loam soil in wood-fiber pots, covered with soil and cultivated in a greenhouse under good growth conditions. 2 to 3 weeks after sowing, the test plants are treated at the one-leaf stage. The compounds of the invention, formulated in the form of wettable powders (WP) or as emulsion concentrates (EC), are then sprayed onto the green parts of the plants as aqueous suspension or emulsion at a water application rate equating to 600 to 800 l/ha with addition of 0.2% wetting agent. After the test plants have been left to stand in the greenhouse under optimal growth conditions for about 3 weeks, the action of the preparations is assessed visually in comparison to untreated controls (herbicidal action in percent (%): 100% activity=the plants have died, 0% activity=like control plants).

[8] = test system: AVEFA; experiment: Pre-emergence herbicidal action against AVEFA; assay type: in vivo, Avena fatua; conditions: 320 g/ha, scored visually after 3 weeks vs untreated controls
How it was run: as §2

[9] = test system: POLCO; experiment: Pre-emergence herbicidal action against POLCO; assay type: in vivo, Polygonum convolvulus; conditions: 320 g/ha
How it was run: as §2

[10] = test system: SETVI; experiment: Pre-emergence herbicidal action against SETVI; assay type: in vivo, Setaria viridis; conditions: 320 g/ha, scored visually after 3 weeks vs untreated controls
How it was run: as §2

[11] = test system: DIGSA; experiment: Post-emergence herbicidal action against DIGSA; assay type: in vivo, Digitaria sanguinalis; conditions: 80 g/ha, visual assessment about 3 weeks after treatment vs untreated controls
How it was run: as §1

[12] = test system: ECHCG; experiment: Post-emergence herbicidal action against ECHCG; assay type: in vivo, Echinochloa crus-galli; conditions: 80 g/ha, visual assessment about 3 weeks after treatment vs untreated controls
How it was run: as §1

[13] = test system: PHBPU; experiment: Post-emergence herbicidal action against PHBPU; assay type: in vivo; conditions: assessed visually after about 3 weeks, 100% = plants have died, 0% = like control plants
Procedure: as §3

[14] = test system: LOLRI; experiment: Post-emergence herbicidal action against LOLRI; assay type: in vivo, Lolium rigidum; conditions: 80 g/ha, visual assessment about 3 weeks after treatment vs untreated controls
How it was run: as §1

[15] = test system: SETVI; experiment: Post-emergence herbicidal action against SETVI; assay type: in vivo, Setaria viridis; conditions: 80 g/ha, visual assessment about 3 weeks after treatment vs untreated controls
How it was run: as §1

[16] = test system: ECHCG; experiment: Pre-emergence herbicidal action against ECHCG; assay type: in vivo, Echinochloa crus-galli; conditions: 320 g/ha, scored visually after 3 weeks vs untreated controls
How it was run: as §2

[17] = test system: VIOTR; experiment: Pre-emergence herbicidal action against VIOTR; assay type: in vivo, Viola tricolor; conditions: 320 g/ha
How it was run: as §2

[18] = test system: VERPE; experiment: Pre-emergence herbicidal action against VERPE; assay type: in vivo, Veronica persica; conditions: 320 g/ha
How it was run: as §2

[19] = test system: VERPE; experiment: Post-emergence herbicidal action against VERPE; assay type: in vivo, Veronica persica; conditions: 80 g/ha, visual assessment about 3 weeks after treatment vs untreated controls
Procedure: as §3

[20] = test system: HORMU; experiment: Post-emergence herbicidal action against HORMU; assay type: in vivo, Hordeum murinum; conditions: 80 g/ha, visual assessment about 3 weeks after treatment vs untreated controls
How it was run: as §1

[21] = test system: AVEFA; experiment: Post-emergence herbicidal action against AVEFA; assay type: in vivo, Avena fatua; conditions: 80 g/ha, visual assessment after about 3 weeks
How it was run: as §1

[22] = test system: VIOTR; experiment: Post-emergence herbicidal action against VIOTR; assay type: in vivo, Viola tricolor; conditions: 80 g/ha, visual assessment about 3 weeks after treatment vs untreated controls
How it was run: as §1

[23] = test system: AMARE; experiment: Pre-emergence herbicidal action against AMARE; assay type: in vivo, Amaranthus retroflexus; conditions: 320 g/ha
How it was run: as §2

[24] = test system: PHBPU; experiment: Pre-emergence herbicidal action against PHBPU; assay type: in vivo; conditions: scored visually after 3 weeks, 100% = plants have died, 0% = like control plants
Excerpt: Seeds of monocotyledonous and dicotyledonous weed plants and crop plants are laid out in sandy loam soil in wood-fiber pots and covered with soil. The compounds of the invention, formulated in the form of wettable powders (WP) or as emulsion concentrates (EC), are then applied to the surface of the covering soil as aqueous suspension or emulsion at a water application rate equating to 600 to 800 L/ha with addition of 0.2% wetting agent.
After the treatment, the pots are placed in a greenhouse and kept under good growth conditions for the trial plants. The damage to the test plants is scored visually after a test period of 3 weeks by comparison with untreated controls (herbicidal activity in percent (%): 100% activity=the plants have died, 0% activity=like control plants).

[25] = test system: MATIN; experiment: Pre-emergence herbicidal action against MATIN; assay type: in vivo; conditions: 320 g/ha
How it was run: as §2

SMILES | Post-emergence action against ALOMY in % [1] | Pre-emergence action against DIGSA in % [2] | Pre-emergence herbicidal action against LOLRI in % [3] | Post-emergence action against ABUTH in % [4] | Pre-emergence action against ALOMY in % [6] | Post-emergence action against POLCO in % [7] | Pre-emergence action against AVEFA in % [8] | Pre-emergence action against POLCO in % [9] | Pre-emergence action against SETVI in % [10] | Post-emergence action against DIGSA in % [11] | Post-emergence action against ECHCG in % [12] | Post-emergence action against LOLRI in % [14] | Post-emergence action against SETVI in % [15] | Pre-emergence action against ECHCG in % [16] | Pre-emergence action against VIOTR in % [17] | further results
CC#Cc1cc(Br)c(C2=C(O)C3(CCC(COCC)C3)NC2=O)c(OC)c1 (centres unmarked) [Example I-05] | 100% | 100% | 100% | 80% | 100% | 100% | 100% | 80% | 100% | 100% | 100% | 100% | 100% | 100% | 90% | Pre-emergence action against ABUTH in % [5]: 80%; Post-emergence action at 80 g/ha against PHBPU in % [13]: 80%
CC#Cc1cc(Br)c(C2=C(O)[C@]3(CC[C@H](COCC)C3)NC2=O)c(OC)c1 (stereo in doubt) [Example I-11, 3-(2-Bromo-6-methoxy-4-prop-1-ynylphenyl)-8-(ethoxymethyl)-4-hydroxy-1-azaspiro[4.4]non-3-en-2-one] | 100% | 100% | 100% | – | 100% | 80% | 100% | – | 100% | 100% | 100% | 100% | 100% | 100% | 90% | Pre-emergence action against VERPE in % [18]: 100%; Post-emergence action against VERPE in % [19]: 80%
CC#Cc1cc(C)c(C2=C(OC(=O)C(C)C)C3(CCC(COC)C3)NC2=O)c(Cl)c1 (centres unmarked) [Example P-16] | 100% | – | – | 80% | – | 80% | – | – | – | 100% | 100% | 100% | 100% | – | – | Post-emergence action against HORMU in % [20]: 100%; Post-emergence action against AVEFA in % [21]: 100%; Post-emergence action against VIOTR in % [22]: 80%
CC#Cc1cc(Br)c(C2=C(OC(=O)OCC)[C@]3(CC[C@H](COCC)C3)NC2=O)c(OC)c1 (stereo in doubt) [Example P-13, [3-(2-Bromo-6-methoxy-4-prop-1-ynyl-phenyl)-8-(ethoxymethyl)-2-oxo-1-azaspiro[4.4]non-3-en-4-yl] ethyl carbonate] | 100% | 100% | 100% | 80% | 100% | – | 100% | 80% | 100% | 100% | 100% | 100% | 100% | 100% | 100% | Pre-emergence action against AMARE in % [23]: 90%; Pre-emergence action at 320 g/ha against PHBPU in % [24]: 100%; Pre-emergence action against MATIN in % [25]: 80%

Reference: patent US20220386606A1, “SPECIFICALLY SUBSTITUTED 3-PHENYL-5-SPIROCYCLOPENTYL-3-PYRROLIN-2-ONES AND THEIR USE AS HERBICIDES” (Bayer Aktiengesellschaft, priority 2019, published 2022)
